Columns and labels:
[1] = tested on: SHSY-5Y neuroblastoma cells; conditions: wild-type cells
GCase [2] = target: T1, GCase (Mus musculus, UniProt P17439); experiment: CBE dose titration in WT mice: GCase activity (4MU hydrolysis assay); format: in vivo; conditions: cortex and liver, 24 hours, 0.3-100 mg/kg CBE
T1 construct: GCase activity remaining 24 hours after administration of CBE was measured; from tissue; host or cells: cortex and liver of wild-type mice (Charles River Laboratories or Jackson Labs)
T1 sequence (P17439 20-515): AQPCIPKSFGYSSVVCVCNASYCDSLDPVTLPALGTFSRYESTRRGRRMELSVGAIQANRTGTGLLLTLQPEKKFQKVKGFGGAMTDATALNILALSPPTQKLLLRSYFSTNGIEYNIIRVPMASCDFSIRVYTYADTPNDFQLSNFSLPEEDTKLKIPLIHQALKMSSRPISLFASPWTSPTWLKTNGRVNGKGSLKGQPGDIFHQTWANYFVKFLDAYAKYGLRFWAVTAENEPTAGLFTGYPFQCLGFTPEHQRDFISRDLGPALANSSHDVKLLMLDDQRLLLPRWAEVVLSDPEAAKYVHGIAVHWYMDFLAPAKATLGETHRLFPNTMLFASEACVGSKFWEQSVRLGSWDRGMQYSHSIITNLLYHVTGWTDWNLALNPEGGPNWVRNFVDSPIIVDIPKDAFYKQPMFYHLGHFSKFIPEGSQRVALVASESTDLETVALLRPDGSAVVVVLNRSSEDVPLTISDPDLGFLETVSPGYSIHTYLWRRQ
Experimental: N=4 per group (8 for untreated and 100 mg/kg plasma). […] Error bars show SEM.

Lyso-GL1 levels = experiment: CBE dose titration in WT mice: lyso-GL1 accumulation; format: in vivo; conditions: cortex, liver and plasma, 24 hours after CBE
Experimental: Lyso-GL1 was detected in cortex (FIG. 2A), liver (FIG. 2B), and plasma (FIG. 2C). N=4 per group (8 for untreated and 100 mg/kg plasma). Results for lyso-GL1 are μg/g wet tissue. […] Error bars show SEM.
A dose response to CBE was performed in wild-type (WT) mice (Charles River Laboratories or Jackson Labs). Concentrations between 0.3 mg/kg and 100 mg/kg of CBE were investigated. GCase activity remaining 24 hours after administration of CBE was measured using a 4-methylumbelliferone (4MU) hydrolysis assay. Briefly, cell lysates from different sample types were diluted into 0.1 M sodium acetate buffer, pH 4.5 containing 10 mM of synthetic substrate 4-methylumbelliferyl-β-D-glucopyranoside and incubated at 37° C. for 1 hour. The reaction was terminated by adding 0.5 volume of 1 M glycine buffer, pH 12.5. The fluorescence of the reaction was measured using a Spectramax fluorimeter (Ex365/Em445; Molecular Devices, Sunnyvale, CA, USA). A standard curve was generated using Cerezyme® (imiglucerase).

[3] = tested on: GL1 and lyso-GL1 accumulation; experiment: CBE timecourse of lipid flux in Gba D409V/D409V, D409V/+ and +/+ mice; format: in vivo; conditions: single intraperitoneal CBE injection
Excerpt: For each plot, the top line (with squares) is the homozygous D409V mice, the middle line (with triangles pointing upwards) is the heterozygous mice, and the bottom line (triangles pointing downwards) is the wild-type mice. N=10 per group. Data are shown as mean±SEM.
It was investigated whether substrate accumulation could allow for discrimination between mice harboring different copy numbers of mutations in GBA1. Three mouse models were investigated: Gba^D409V/D409V, Gba^D409V/+, and Gba^+/+, which are homozygous for a loss of function D409V mutation in GBA1, heterozygous for that mutation, or WT for GBA1, respectively. The GCase substrate, glucosylceramide (GL1) was investigated in addition to glucosylsphingosine (lyso-GL1). Mice were administered a single dose of CBE and sacrificed after 3, 6, 24, 48, or 72 hours. Substrate accumulation and dissipation was measured over time.

[4] = tested on: lyso-GL1 and GL-1 accumulation; experiment: CBE timecourse of lipid flux in wild-type mouse strains; format: in vivo; conditions: C57BL/6, BALB/cJ and FVB mice after CBE challenge
Experimental: GSL levels were measured in cortex (FIG. 4A), liver (FIG. 4B), and plasma (FIG. 4C). […] Data are shown as mean±SD.
Three different wild-type mouse strains (C57BL/6J, BALB/cJ, and FVB-Charles River Laboratories or Jackson Labs) were evaluated for GSL accumulation and restoration after CBE challenge. […] The CBE challenge time course was performed in these three different strains, measuring lyso-GL1 and GL-1 accumulation at 24, 48, and 72 hours after administration.

[5] = tested on: SHSY-5Y neuroblastoma cells; experiment: Lipid response of SHSY-5Y neuroblastoma cells to CBE incubation; format: cell-based, human; conditions: 100 μM CBE for 24 hours
Excerpt: In each case, the lyso-GL1 levels without treatment are very low (left-hand bar, in black). Error bars show SD, and data are presented in relative (arbitrary) units, “AU”, which are normalized for cell number.
First, the response of human SHSY-5Y neuroblastoma cells to CBE was studied. Cells were either used without further changes (wild-type) or were modified to reduce or increase Gba activity (knock-down and over-expressed, respectively). The modification was effected by stable transfection with a plasmid expressing an siRNA targeting GBA (KD) or a plasmid constitutively overexpressing GBA (OE). Human SHSY-5Y neuroblastoma cells (Sigma) were incubated with 100 μM CBE (Toronto Research Chemicals) for 24 hours. Enzyme activity and lipid levels were measured at −24 hours (before CBE incubation), and at 0, 24, and 48 hours after CBE removal. […] A marked increase in enzyme activity was observed between the knock-down and wild-type cells, and between the wild-type and over-expressed cells.

[6] = tested on: human peripheral blood mononuclear cells (PBMCs); experiment: CBE challenge in human PBMCs; format: cell-based
Experimental: PBMCs were obtained from blood samples (Stem Cell Technologies, catalog number 70025, lot number 2105417005, Donor ID CE0006419) using standard procedures. 25,000 cells were added to individual wells of a multi-well plate and allowed to acclimate for 24 hours before they were treated with 100 μM CBE for 24 hours. Culture medium was removed and replaced with fresh medium (without CBE), and lipids were extracted from the cells at time intervals of 0, 2, 4, 8, 16 and 24 hours. GL1 and lyso-GL1 levels were measured, as were levels of phosphatidylcholine (PC).

GCase [7] = target: T2, GCase (Homo sapiens, UniProt P04062); conditions: read-out: IC50 against GCase; cited from earlier work
T2 sequence (P04062 40-536): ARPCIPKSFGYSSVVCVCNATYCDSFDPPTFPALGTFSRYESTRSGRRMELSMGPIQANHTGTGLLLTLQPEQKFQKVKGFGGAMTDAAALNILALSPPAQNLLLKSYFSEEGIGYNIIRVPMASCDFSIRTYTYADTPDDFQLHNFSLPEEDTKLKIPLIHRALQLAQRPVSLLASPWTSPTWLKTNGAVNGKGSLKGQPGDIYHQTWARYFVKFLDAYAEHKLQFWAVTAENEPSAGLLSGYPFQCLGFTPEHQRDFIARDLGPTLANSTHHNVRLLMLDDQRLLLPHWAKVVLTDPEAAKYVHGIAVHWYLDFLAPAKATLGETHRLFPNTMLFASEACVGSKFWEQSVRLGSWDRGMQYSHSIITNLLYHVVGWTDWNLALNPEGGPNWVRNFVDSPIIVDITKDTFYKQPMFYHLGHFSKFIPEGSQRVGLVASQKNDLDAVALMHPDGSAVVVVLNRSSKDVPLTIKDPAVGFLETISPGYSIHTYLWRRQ

[8] = target: T3, non-lysosomal glucosylceramidase (Homo sapiens, UniProt Q9HCG7); conditions: range given jointly for three glycosidases; read-out: IC50 against non-lysosomal glucosylceramidase; cited from earlier work
T3 sequence (Q9HCG7 1-927): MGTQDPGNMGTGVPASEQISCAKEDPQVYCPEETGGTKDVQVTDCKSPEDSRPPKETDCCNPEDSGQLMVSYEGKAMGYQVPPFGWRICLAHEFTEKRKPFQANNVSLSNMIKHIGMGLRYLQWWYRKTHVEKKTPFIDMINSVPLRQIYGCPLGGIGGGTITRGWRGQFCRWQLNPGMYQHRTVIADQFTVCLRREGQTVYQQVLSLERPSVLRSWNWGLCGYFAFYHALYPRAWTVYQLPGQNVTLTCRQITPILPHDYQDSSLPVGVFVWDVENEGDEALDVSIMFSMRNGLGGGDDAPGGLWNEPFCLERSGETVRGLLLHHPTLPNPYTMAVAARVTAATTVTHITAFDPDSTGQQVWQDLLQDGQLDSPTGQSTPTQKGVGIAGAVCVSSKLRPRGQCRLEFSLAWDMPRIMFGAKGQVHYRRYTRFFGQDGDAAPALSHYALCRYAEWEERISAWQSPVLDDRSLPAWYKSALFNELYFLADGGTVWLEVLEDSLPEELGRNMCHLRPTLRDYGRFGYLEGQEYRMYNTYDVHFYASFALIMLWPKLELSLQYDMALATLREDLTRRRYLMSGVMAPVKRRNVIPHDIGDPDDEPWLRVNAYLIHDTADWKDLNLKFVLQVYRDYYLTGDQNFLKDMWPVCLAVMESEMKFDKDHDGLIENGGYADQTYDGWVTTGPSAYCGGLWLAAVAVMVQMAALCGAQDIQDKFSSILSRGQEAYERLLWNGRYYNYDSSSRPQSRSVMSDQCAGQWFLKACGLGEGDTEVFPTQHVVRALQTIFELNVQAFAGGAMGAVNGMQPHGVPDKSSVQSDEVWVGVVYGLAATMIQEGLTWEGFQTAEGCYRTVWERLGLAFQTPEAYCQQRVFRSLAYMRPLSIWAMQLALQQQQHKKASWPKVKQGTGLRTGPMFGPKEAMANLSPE

β-glucuronidase = target: T4, β-glucuronidase (Homo sapiens, UniProt P08236); conditions: range given jointly for three glycosidases; read-out: IC50 against β-glucuronidase; cited from earlier work
T4 sequence (P08236 23-651): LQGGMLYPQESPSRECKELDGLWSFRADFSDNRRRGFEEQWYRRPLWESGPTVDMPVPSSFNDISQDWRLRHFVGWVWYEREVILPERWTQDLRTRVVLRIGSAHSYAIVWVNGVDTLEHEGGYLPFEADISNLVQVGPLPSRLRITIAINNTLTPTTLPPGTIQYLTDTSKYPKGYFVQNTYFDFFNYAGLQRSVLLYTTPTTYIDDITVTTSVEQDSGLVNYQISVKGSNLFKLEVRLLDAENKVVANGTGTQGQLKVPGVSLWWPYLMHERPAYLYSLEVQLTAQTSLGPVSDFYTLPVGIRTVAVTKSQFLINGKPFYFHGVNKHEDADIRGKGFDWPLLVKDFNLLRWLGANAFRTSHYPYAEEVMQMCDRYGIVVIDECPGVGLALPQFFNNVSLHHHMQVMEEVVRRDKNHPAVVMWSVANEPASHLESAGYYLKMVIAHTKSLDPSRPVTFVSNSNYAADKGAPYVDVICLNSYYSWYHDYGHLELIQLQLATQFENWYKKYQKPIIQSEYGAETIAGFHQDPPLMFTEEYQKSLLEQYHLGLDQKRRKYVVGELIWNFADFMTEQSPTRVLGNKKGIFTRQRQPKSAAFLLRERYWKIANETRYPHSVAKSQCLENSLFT

α-glucosidases = conditions: range given jointly for three glycosidases; read-out: IC50 against α-glucosidases; cited from earlier work

| SMILES | increase of response (dynamic range) on incubation with sodium taurocholate [1] [factor] | GCase activity remaining after administration of CBE (GCase [2]) | Lyso-GL1 levels (Lyso-GL1 levels) | time of peak substrate accumulation [3] [h] | time of peak glycosphingolipid levels [4] [h] | GL1 and lyso-GL1 accumulation upon CBE treatment ([5]; KD, WT and OE SHSY-5Y cells) | total GL1 levels after treatment ([5]; wild-type SHSY-5Y cells) | increase of GL1 levels after CBE treatment ([6]; 100 μM CBE for 24 hours) | phosphatidylcholine (PC) levels ([6]; 100 μM CBE for 24 hours) | GL1 levels after CBE treatment ([6]; 100 μM CBE for 24 hours, baseline about 2 ng/ml) | lyso-GL1 levels after CBE treatment ([6]; 100 μM CBE for 24 hours, from nearly undetectable levels) | time for GL1 and lyso-GL1 levels to normalize after treatment ([6]; normalized to PC levels) [h] | IC50 (GCase [7]) [µM] | IC50 [8] [µM] | IC50 (β-glucuronidase) [µM] | IC50 (α-glucosidases) [µM] |
| --- | --- | --- | --- | --- | --- | --- | --- | --- | --- | --- | --- | --- | --- | --- | --- | --- |
| C[C@H](CCC(=O)NCCS(=O)(=O)O)[C@H]1CC[C@H]2[C@@H]3[C@H](O)C[C@@H]4C[C@H](O)CC[C@]4(C)[C@H]3C[C@H](O)[C@]12C [sodium taurocholate] | ~10 | – | – | – | – | – | – | – | – | – | – | – | – | – | – | – |
| O[C@H]1[C@H](O)[C@@H](O)[C@@H]2O[C@@H]2[C@@H]1O [CBE, conduritol-β epoxide] | – | dose-dependent reduction in enzyme activity | increased with increasing CBE dose beyond 30 mg/kg | 24 to 48 | 24 | inversely proportional to the level of GBA1 expression | No significant difference | about 6 fold | largely unaffected | about 12 ng/ml | about 0.08 ng/ml | 16 | ~0.3 | 200 to 2000 | 200 to 2000 | 200 to 2000 |

Source: patent US20250264484A1, “METHODS FOR IDENTIFYING AND TREATING DISEASES” (Genzyme Corporation, priority 2022, published 2025)
